Assay results from US4740233A, “Substituted 1,2,4-triazolo[1,5-a]-pyrimidine-2-sulfonamides and compositions and methods of controlling undesired vegetation and suppressing the nitrification of ammonium nitrogen in soil” (The Dow Chemical Company, priority 1986, dated 1988).

Key:
[1] = test system: annual sugar beet variety (SLC03); test: Plant growth regulator activity, preemergence; format: in vivo; details: for observed effect (preemergence): 400 ppm; for minimal effective concentration: Beta vulgaris, pre-emergence, 6-7 weeks, read-out: Bolting Inhibition (preemergence), concentration with observed effect
Description: Using a regular biennial variety, even a bolting-susceptible variety would require a cold treatment of around 10-16 weeks plus a hormone treatement in conjunction with specific light intensities. Thus, for a screening organism, we selected one which would consistently produce bolting on a regular schedule. The screen is run with an annual sugar beet variety (SLC03) provided by Dr. Richard J. Hecker, Fort Collins, Colo. This variety is an inbred which bolts in the 6- to 8-leaf stage without any need for vernalization. This allows the screen to be run entirely in the greenhouse with all 110 chemical compounds tested on one tray. The sugarbeets are grown in 3×3 inch square pots in a greenhouse sandy loam potting mix. The sugarbeets are sprayed with test compounds when they are 2 to 3 weeks old (2 true leaves). The compounds are dissolved in acetone and diluted with water containing Tween 20 as a wetting agent. The concentration of acetone in the final spray is 20% and the concentration of Tween 20 is 0.05 percent. The plants are examined for the appearance of a bolt 4 weeks after spraying.
Preemergence tests are conducted by spraying formulated chemical on seeds placed on potting soil. The sprayed seeds are then covered with 1/4 inch of potting soil and the pots are watered. Bolting is evaluated 6-7 weeks after the initiation of the test. At this time untreated plants have a vigorous bolting stem with visible flowers.

[2] = test system: nitrification of ammonium nitrogen; test: Suppression of nitrification of ammonium nitrogen in soil; details: 27° C.
How it was run: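 Value is % NH4-N remaining after a two-week, 27° C incubation of treated soil held at 1/3 bar tension moisture. Nitrate was measured with an ion-selective electrode after extraction with ammonium sulfate solution and 10 min shaking.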

Structure (SMILES): CSc1cccc(NS(=O)(=O)c2nc3ncc(Cl)cn3n2)c1 [Compound 134]
- observed effect (preemergence) [1]: stunting
- minimal effective concentration [1]: 400 µg/mL

Structure (SMILES): Cc1cc(C)n2nc(S(=O)(=O)Nc3ccccc3C(=O)c3ccccc3)nc2n1 [Compound 95]
- % NH4-N Remaining After 2 Weeks Incubation ([2]; 0.06 ppm): 26%
- % NH4-N Remaining After 2 Weeks Incubation ([2]; 0.25 ppm): 36%
- % NH4-N Remaining After 2 Weeks Incubation ([2]; 1 ppm): 53%
- % NH4-N Remaining After 2 Weeks Incubation ([2]; 4 ppm): 67%
- minimal effective concentration [1]: 400 µg/mL

Structure (SMILES): O=S(=O)(Nc1ccccc1F)c1nc2ncc(Cl)cn2n1 [Compound 133]
- observed effect (preemergence) [1]: stunting
- minimal effective concentration [1]: 400 µg/mL

Structure (SMILES): Cc1nc2nc(S(=O)(=O)Nc3ccccc3Cl)nn2c(C)c1Cl [Compound 198]
- % NH4-N Remaining After 2 Weeks Incubation ([2]; 0.06 ppm): 22%
- % NH4-N Remaining After 2 Weeks Incubation ([2]; 0.25 ppm): 37%
- % NH4-N Remaining After 2 Weeks Incubation ([2]; 1 ppm): 53%
- % NH4-N Remaining After 2 Weeks Incubation ([2]; 4 ppm): 74%
- observed effect (preemergence) [1]: stunting
- minimal effective concentration [1]: 400 µg/mL

Structure (SMILES): Cc1cc(C)n2nc(S(=O)(=O)Nc3cc(C(F)(F)F)ccc3Cl)nc2n1 [Compound 52]
- % NH4-N Remaining After 2 Weeks Incubation ([2]; 0.01 ppm): 0%
- % NH4-N Remaining After 2 Weeks Incubation ([2]; 0.1 ppm): 39%
- % NH4-N Remaining After 2 Weeks Incubation ([2]; 1 ppm): 74%
- % NH4-N Remaining After 2 Weeks Incubation ([2]; 10 ppm): 91%
- minimal effective concentration [1]: 100 µg/mL
